Experiments:
[1] = biological target: T1, Ephrin type-B receptor 6 (Homo sapiens) (UniProt O15197); assay: Selectivity interaction (Ambit KINOMEscan and KiNATiv profiling in Jurkat cells) EUB0000090b EPHB6; format: cell-based; details: at 1 µM
T1 sequence (whole entry): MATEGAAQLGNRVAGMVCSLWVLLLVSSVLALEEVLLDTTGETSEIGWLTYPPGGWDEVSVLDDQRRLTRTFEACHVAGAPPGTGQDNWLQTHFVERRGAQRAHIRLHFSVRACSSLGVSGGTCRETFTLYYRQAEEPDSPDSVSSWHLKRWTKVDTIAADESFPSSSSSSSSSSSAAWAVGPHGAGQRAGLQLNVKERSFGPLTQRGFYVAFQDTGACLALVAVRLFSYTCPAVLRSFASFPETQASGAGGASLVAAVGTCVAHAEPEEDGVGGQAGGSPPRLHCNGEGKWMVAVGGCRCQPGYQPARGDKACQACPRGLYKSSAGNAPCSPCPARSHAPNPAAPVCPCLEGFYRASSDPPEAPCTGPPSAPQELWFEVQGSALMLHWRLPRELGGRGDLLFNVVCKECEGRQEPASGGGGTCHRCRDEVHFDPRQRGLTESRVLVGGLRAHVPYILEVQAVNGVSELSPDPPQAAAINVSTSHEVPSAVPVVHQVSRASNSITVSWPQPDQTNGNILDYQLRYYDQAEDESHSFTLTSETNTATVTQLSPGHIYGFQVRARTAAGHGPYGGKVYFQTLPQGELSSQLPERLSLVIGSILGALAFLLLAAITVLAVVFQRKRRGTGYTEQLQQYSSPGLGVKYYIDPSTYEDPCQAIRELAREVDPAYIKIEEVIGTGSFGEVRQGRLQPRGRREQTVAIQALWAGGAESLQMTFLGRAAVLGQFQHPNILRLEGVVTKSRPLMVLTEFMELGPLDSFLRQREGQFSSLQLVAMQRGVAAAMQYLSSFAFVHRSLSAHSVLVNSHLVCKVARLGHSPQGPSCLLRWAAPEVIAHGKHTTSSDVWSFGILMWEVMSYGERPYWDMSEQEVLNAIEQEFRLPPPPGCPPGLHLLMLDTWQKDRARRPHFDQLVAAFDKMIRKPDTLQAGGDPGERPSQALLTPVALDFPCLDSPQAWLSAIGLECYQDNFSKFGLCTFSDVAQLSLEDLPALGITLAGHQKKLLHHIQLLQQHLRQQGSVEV

[2] = biological target: T2, Phosphatidylinositol 5-phosphate 4-kinase type-2 beta (Homo sapiens) (UniProt P78356); assay: Selectivity interaction (KinomeScan (DiscoverX)) EUB0001079a PIP4K2B; details: at 1 µM
T2 sequence (whole entry): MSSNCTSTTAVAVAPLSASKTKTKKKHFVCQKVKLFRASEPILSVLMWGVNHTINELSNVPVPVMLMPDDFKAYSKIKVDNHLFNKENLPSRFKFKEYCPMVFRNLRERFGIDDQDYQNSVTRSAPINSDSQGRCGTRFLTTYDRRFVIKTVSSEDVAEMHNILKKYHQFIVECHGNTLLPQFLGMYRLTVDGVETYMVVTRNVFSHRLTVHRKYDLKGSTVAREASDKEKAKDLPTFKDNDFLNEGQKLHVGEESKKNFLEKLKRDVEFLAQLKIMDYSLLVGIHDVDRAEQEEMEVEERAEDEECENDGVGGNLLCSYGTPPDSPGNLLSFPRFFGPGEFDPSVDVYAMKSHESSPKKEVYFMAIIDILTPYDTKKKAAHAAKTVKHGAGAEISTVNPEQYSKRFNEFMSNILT

[3] = system: Receptor-type tyrosine-protein kinase FLT3 (Homo sapiens), P36888 [UNDEFINED MUTATION]; assay: Selectivity interaction (KinomeScan (DiscoverX)) EUB0001079a FLT3; details: at 1 µM
Sequence of Receptor-type tyrosine-protein kinase FLT3 (Homo sapiens), P36888 [UNDEFINED MUTATION] (P36888 whole entry, looked up, change not shown): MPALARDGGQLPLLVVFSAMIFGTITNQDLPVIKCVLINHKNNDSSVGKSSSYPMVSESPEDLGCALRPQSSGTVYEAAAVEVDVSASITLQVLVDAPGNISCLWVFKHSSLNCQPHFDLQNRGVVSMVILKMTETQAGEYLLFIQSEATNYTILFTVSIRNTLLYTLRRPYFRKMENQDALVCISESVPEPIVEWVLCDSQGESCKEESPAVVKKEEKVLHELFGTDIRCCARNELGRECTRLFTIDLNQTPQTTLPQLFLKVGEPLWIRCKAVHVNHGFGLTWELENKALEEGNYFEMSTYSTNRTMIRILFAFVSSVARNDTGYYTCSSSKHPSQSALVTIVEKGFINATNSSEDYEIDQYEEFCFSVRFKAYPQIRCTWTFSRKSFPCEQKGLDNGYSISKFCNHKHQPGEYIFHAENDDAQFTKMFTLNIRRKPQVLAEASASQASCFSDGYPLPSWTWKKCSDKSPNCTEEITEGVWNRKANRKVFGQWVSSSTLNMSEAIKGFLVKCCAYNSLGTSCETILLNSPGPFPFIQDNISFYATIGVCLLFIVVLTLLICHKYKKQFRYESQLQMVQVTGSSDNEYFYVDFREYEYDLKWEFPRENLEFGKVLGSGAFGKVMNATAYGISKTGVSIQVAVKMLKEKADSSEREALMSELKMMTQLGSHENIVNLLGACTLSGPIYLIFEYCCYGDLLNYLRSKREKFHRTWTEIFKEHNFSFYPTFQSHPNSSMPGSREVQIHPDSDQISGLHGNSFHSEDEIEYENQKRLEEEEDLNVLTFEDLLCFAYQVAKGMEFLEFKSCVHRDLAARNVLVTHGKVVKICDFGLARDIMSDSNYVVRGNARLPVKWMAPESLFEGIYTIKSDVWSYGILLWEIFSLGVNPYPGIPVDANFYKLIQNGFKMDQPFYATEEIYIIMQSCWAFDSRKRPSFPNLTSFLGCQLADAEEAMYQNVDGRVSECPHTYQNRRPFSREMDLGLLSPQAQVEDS

[4] = biological target: Ribosomal protein S6 kinase alpha-3 (Homo sapiens, UniProt P51812); assay: Selectivity interaction (KinomeScan (DiscoverX)) EUB0001079a RPS6KA3; details: at 1 µM
Sequence of Ribosomal protein S6 kinase alpha-3 (P51812 whole entry): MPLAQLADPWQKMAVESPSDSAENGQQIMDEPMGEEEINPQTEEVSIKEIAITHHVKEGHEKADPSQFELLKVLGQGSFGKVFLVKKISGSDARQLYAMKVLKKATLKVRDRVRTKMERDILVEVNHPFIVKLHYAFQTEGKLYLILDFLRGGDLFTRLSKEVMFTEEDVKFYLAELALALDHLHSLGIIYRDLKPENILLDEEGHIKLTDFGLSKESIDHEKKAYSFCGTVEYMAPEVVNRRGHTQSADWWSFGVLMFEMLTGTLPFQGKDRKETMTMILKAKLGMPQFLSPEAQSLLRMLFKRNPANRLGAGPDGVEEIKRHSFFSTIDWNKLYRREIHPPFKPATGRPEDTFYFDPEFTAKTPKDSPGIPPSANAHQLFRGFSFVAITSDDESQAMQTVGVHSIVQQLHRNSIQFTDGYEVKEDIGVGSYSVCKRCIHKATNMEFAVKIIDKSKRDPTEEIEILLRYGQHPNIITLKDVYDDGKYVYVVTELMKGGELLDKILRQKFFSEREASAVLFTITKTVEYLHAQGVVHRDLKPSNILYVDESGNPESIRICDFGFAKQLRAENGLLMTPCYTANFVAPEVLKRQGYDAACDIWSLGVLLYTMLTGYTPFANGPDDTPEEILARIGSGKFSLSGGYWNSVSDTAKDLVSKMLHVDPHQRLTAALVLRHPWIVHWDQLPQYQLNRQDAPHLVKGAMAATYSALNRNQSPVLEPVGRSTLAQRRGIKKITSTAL

[5] = biological target: T3, Protein kinase C iota type (Homo sapiens) (UniProt P41743); assay: Selectivity interaction (KinomeScan (DiscoverX)) EUB0000618a PRKCI; details: at 10 µM
T3 sequence (whole entry): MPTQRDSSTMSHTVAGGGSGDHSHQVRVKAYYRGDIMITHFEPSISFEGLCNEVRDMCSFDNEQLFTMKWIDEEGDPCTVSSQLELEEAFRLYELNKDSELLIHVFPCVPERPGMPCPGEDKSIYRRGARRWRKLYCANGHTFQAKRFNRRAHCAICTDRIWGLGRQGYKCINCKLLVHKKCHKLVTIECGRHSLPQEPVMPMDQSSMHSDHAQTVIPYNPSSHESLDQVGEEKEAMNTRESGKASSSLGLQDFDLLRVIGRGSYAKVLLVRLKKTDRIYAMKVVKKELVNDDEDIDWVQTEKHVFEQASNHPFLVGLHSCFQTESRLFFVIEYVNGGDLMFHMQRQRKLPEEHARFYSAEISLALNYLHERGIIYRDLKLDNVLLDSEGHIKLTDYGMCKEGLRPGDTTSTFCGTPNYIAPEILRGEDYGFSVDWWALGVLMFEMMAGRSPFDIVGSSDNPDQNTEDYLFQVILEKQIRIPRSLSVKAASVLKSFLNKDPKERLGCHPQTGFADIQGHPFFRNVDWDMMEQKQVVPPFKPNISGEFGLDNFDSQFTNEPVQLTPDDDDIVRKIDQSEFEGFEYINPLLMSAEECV

[6] = biological target: Serine/threonine-protein kinase MARK1 (Homo sapiens) (UniProt Q9P0L2); assay: Selectivity interaction (KinomeScan (DiscoverX)) EUB0001619a MARK1; details: at 1 µM
Sequence of Serine/threonine-protein kinase MARK1 (Homo sapiens) (Q9P0L2 whole entry, looked up): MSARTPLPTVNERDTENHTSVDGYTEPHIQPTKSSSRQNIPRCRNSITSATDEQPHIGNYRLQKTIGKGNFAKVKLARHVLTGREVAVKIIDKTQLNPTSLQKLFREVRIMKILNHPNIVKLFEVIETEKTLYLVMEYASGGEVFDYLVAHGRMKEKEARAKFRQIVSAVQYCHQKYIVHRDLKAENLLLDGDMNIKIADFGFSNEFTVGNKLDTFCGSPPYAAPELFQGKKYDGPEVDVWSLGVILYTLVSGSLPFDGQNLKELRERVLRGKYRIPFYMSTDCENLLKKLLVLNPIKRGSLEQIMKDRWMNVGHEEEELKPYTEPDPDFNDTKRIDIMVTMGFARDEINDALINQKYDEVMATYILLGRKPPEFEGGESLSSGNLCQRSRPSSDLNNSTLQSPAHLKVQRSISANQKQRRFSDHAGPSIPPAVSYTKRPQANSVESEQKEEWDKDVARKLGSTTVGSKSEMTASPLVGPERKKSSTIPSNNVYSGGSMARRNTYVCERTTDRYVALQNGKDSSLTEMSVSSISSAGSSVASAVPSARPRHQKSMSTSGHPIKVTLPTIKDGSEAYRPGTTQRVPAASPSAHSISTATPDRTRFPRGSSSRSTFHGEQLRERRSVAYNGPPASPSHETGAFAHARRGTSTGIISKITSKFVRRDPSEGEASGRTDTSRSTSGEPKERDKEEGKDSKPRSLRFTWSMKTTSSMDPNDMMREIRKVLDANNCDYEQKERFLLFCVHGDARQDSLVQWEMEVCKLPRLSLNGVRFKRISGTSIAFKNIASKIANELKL

[7] = biological target: T4, Serine/threonine-protein kinase 4 (Homo sapiens) (UniProt Q13043); assay: Selectivity interaction (KinomeScan (DiscoverX)) EUB0000229b STK4; details: at 10 µM
T4 sequence (whole entry): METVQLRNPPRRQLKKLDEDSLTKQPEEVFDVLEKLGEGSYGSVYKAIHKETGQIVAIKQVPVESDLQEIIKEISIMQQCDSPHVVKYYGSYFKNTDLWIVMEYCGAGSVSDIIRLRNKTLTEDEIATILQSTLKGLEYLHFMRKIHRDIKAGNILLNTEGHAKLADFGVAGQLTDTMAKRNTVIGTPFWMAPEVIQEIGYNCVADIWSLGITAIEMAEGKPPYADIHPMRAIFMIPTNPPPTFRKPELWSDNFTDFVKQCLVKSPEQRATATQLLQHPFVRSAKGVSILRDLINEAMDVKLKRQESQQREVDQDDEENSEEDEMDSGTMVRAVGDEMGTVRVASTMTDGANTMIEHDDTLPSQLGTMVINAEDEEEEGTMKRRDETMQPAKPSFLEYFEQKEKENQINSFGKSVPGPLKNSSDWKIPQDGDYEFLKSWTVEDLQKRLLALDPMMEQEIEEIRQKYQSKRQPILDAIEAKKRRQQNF

Activated CDC42 kinase 1 = Activated CDC42 kinase 1 (Homo sapiens, UniProt Q07912); assay: Selectivity interaction (KinomeScan (DiscoverX)) EUB0001049a TNK2; details: at 1 µM
Sequence of Activated CDC42 kinase 1 (Q07912 whole entry, looked up): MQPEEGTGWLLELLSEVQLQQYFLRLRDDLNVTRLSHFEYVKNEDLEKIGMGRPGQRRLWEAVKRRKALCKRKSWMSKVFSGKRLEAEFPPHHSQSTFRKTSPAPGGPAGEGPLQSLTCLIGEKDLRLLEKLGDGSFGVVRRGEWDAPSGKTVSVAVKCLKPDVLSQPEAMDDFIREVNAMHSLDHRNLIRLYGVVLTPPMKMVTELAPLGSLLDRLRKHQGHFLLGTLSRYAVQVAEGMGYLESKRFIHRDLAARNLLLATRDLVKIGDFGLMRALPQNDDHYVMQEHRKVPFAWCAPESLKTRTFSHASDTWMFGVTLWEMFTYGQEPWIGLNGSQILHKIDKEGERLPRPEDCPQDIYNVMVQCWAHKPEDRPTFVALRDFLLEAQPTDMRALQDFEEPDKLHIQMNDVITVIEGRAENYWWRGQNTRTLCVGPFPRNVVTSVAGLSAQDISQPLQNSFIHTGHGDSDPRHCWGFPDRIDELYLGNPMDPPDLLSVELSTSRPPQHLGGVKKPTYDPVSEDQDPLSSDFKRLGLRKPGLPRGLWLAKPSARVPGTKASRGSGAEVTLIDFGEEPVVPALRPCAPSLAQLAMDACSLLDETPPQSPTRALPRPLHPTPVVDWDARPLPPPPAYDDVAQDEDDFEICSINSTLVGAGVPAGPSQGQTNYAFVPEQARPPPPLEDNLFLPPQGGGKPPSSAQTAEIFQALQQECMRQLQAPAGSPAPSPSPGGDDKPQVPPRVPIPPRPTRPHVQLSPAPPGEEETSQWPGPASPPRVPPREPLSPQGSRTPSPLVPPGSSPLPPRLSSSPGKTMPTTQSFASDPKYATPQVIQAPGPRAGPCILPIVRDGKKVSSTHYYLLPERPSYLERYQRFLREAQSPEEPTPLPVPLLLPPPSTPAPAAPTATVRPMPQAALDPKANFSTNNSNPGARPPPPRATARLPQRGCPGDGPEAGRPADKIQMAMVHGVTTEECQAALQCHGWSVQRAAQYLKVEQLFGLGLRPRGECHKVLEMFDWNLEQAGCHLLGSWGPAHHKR

[8] = biological target: Platelet-derived growth factor receptor alpha (Homo sapiens, UniProt P16234); assay: Selectivity interaction (KinomeScan (DiscoverX)) EUB0000092b PDGFRA; details: at 10 µM
Sequence of Platelet-derived growth factor receptor alpha (P16234 whole entry): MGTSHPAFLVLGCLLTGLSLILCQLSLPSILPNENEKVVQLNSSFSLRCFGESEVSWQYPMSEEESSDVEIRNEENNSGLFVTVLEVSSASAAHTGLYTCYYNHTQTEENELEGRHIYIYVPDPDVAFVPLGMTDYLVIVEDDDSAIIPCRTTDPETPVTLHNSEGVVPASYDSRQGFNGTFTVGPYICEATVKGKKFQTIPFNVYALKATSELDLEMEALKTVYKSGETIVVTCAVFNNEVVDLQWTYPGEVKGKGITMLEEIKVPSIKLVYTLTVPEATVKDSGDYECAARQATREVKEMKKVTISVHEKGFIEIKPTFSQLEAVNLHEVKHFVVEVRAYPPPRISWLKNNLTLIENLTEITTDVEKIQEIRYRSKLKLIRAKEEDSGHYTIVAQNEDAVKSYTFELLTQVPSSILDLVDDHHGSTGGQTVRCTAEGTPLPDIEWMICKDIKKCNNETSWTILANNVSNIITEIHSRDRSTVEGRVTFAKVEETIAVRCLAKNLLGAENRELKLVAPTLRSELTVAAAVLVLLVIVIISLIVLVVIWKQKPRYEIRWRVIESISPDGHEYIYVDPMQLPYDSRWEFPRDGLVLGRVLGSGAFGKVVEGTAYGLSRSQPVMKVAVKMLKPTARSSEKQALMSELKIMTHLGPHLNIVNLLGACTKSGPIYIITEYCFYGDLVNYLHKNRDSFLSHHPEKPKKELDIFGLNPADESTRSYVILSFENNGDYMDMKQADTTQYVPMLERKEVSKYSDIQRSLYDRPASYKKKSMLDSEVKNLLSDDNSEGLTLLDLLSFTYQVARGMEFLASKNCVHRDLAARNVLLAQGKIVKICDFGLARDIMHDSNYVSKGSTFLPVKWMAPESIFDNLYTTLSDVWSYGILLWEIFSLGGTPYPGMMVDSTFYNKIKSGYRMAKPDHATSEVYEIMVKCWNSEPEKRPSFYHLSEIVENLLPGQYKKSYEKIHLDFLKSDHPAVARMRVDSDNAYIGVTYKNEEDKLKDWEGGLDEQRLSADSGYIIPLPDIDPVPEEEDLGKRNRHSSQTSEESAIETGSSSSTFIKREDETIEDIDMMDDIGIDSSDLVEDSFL

SMILES: CN(C)C/C=C/C(=O)Nc1ccc(C(=O)N2CCCC(Nc3ncc(Cl)c(-c4c[nH]c5ccccc45)n3)C2)cc1 (centres undefined)
- % of control [1]: 76%

SMILES: Nc1cnc(N2CCc3cc(S(=O)(=O)Nc4c(F)cc(Cl)cc4F)cc(N4CCCC4=O)c32)nc1 [TP-020n]
- % of control [2]: 100%
- % of control [3]: 96%
- % of control [4]: 84%

SMILES: O[C@H]1CC[C@H](Nc2ncc3nc(Nc4c(F)cc(F)cc4F)n([C@H]4CCOC4)c3n2)CC1
- % of control [5]: 100%

SMILES: N#Cc1cccc(-c2c[nH]c3ncnc(N4CCOCC4)c23)c1
- % of control [6]: 91%

SMILES: COc1cc(N(C)c2ccnc3ccc(C(F)(F)F)cc23)cc(OC)c1OC
- % binding [7]: 99%

SMILES: COc1cc(Nc2nc(C)cc(-c3cnn4nc(OC)ccc34)n2)cc(C(F)(F)F)c1
- % of control (Activated CDC42 kinase 1): 77%

SMILES: CCC(=O)N1CCN(c2ccc(-n3c(=O)ccc4cnc5ccc(-c6cnc7ccccc7c6)cc5c43)cc2C(F)(F)F)CC1
- % of control [8]: 63%

Reference: ChEMBL document CHEMBL5465560, “Selectivity Literature for EUbOPEN Chemogenomic Library” (2024)
